{"source": "patent US20240360157A1", "about": "“TYK2 INHIBITORS” (BIOGEN MA INC., priority 2021, published 2024)", "format_in_all_cases": "biochemical", "key": {"[1]": {"target": "human TYK2 catalytic kinase (JH1) domain (Homo sapiens (Human), UniProt P29597)", "sequence (P29597 897-1176)": "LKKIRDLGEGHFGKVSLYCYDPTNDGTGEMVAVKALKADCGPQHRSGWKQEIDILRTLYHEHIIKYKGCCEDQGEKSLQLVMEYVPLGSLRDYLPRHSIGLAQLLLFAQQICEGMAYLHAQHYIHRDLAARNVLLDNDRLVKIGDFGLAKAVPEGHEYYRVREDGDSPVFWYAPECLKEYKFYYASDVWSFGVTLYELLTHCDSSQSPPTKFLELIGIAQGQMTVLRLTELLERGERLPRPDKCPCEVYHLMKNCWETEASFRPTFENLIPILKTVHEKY", "experiment": "ADP-Glo Kinase Assay, recombinant TYK2 catalytic kinase (JH1) domain", "details": "recombinant JH1 domain 2 nM, 10 μM ATP, JAK3-974 peptide, mean, read-out: TYK2 biochem IC50 (nM) Mean", "in_short": "(§1)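 Compounds were titrated in 11 points of 3-fold dilution starting at 10 μM or 1 μM. Enzyme (JAK1 4 nM, JAK2 0.2 nM, JAK3 0.3 nM, TYK2 2 nM) and 50 μM peptide reacted for 100 minutes, followed by ADP-to-luminescence detection; IC50 by 4-parameter fit.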"}, "[2]": {"target": "human JAK1 catalytic kinase (JH1) domain (Homo sapiens (Human), UniProt P23458)", "sequence (P23458 875-1153)": "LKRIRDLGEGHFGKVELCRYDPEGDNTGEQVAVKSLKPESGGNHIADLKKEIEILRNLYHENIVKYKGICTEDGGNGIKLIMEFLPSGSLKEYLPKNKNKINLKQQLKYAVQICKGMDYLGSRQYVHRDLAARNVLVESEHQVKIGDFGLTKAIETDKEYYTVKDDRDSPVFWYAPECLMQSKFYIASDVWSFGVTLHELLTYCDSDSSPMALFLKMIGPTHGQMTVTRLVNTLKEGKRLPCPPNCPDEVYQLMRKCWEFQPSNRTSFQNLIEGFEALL", "experiment": "ADP-Glo Kinase Assay, recombinant JAK1 catalytic kinase (JH1) domain", "details": "recombinant JH1 domain 4 nM, 35 μM ATP, JAK3-342 peptide, mean, read-out: JAK1 biochem IC50 (nM) Mean", "in_short": "as §1"}, "[3]": {"target": "human JAK2 catalytic kinase (JH1) domain (Homo sapiens (Human), UniProt O60674)", "sequence (O60674 849-1124)": "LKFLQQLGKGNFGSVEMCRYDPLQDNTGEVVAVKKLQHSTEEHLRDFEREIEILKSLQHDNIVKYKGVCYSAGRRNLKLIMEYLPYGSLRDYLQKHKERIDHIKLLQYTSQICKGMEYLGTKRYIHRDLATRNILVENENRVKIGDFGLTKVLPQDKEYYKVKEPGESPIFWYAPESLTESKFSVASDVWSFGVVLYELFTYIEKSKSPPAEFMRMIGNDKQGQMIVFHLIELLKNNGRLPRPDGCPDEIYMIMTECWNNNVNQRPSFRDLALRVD", "experiment": "ADP-Glo Kinase Assay, recombinant JAK2 catalytic kinase (JH1) domain", "details": "recombinant JH1 domain 0.2 nM, 15 μM ATP, JAK3-974 peptide, mean, read-out: JAK2 biochem IC50 (nM) Mean", "in_short": "as §1"}, "[4]": {"target": "human JAK3 catalytic kinase (JH1) domain (Homo sapiens (Human), UniProt P52333)", "sequence (P52333 822-1111)": "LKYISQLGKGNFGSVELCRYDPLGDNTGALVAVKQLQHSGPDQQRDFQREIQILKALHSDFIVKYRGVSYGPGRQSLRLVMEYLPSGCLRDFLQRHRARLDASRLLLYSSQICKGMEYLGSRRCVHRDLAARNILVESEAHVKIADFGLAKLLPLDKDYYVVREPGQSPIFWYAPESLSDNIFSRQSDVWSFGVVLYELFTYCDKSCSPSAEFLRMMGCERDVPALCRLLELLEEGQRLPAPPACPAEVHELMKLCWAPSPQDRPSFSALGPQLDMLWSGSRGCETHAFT", "experiment": "ADP-Glo Kinase Assay, recombinant JAK3 catalytic kinase (JH1) domain", "details": "recombinant JH1 domain 0.3 nM, 4 μM ATP, JAK3-974 peptide, mean, read-out: JAK3 biochem IC50 (nM) Mean", "in_short": "as §1"}}, "data": [{"smiles": "Cn1cc(-c2cc3c(N4CC5CCC(C4)N5C(=O)[C@@H]4C[C@H]4F)ncnn3c2)c(F)n1", "note": "[Example 96, (3-(6-(3-fluoro-1-methyl-1H-pyrazol-4-yl)pyrrolo[2,1-f][1,2,4]triazin-4-yl)-3,8-diazabicyclo[3.2.1]octan-8-yl)((1S,2R)-2-fluorocyclopropyl)methanone]", "values": [{"measurement": "IC50", "setting": "[1]", "result": 13.7, "unit": "nM"}, {"measurement": "IC50", "setting": "[2]", "result": 718, "unit": "nM"}, {"measurement": "IC50", "setting": "[3]", "result": 422, "unit": "nM"}, {"measurement": "IC50", "setting": "[4]", "result": 3270, "unit": "nM"}]}, {"smiles": "Cc1cc(-c2nc3c(N4CC5CCC(C4)N5C(=O)[C@@H]4C[C@H]4F)ccnc3[nH]2)ccn1", "note": "[Example 202, ((1S,2R)-2-fluorocyclopropyl)(3-(2-(2-methylpyridin-4-yl)-3H-imidazo[4,5-b]pyridin-7-yl)-3,8-diazabicyclo[3.2.1]octan-8-yl)methanone]", "values": [{"measurement": "IC50", "setting": "[1]", "result": 2.5, "unit": "nM"}, {"measurement": "IC50", "setting": "[2]", "result": 5, "unit": "nM"}, {"measurement": "IC50", "setting": "[3]", "result": 14, "unit": "nM"}, {"measurement": "IC50", "setting": "[4]", "result": 199, "unit": "nM"}]}, {"smiles": "O=C([C@@H]1C[C@H]1F)N1C2CCC1CN(c1ncnn3cc(-c4cnn(C(F)F)c4)cc13)C2", "note": "[Example 76, (3-(6-(1-(difluoromethyl)-1H-pyrazol-4-yl)pyrrolo[2,1-f][1,2,4]triazin-4-yl)-3,8-diazabicyclo[3.2.1]octan-8-yl)((1S,2R)-2-fluorocyclopropyl)methanone]", "values": [{"measurement": "IC50", "setting": "[1]", "result": 23.1, "unit": "nM"}, {"measurement": "IC50", "setting": "[2]", "result": 574, "unit": "nM"}, {"measurement": "IC50", "setting": "[3]", "result": 850, "unit": "nM"}, {"measurement": "IC50", "setting": "[4]", "result": 6270, "unit": "nM"}]}, {"smiles": "Cn1cc(-c2cc3c(N4CC5CCC(C4)N5C(=O)C4CC4)ccnn3c2)cn1", "note": "[Example 15, cyclopropyl(3-(6-(1-methyl-1H-pyrazol-4-yl)pyrrolo[1,2-b]pyridazin-4-yl)-3,8-diazabicyclo[3.2.1]octan-8-yl)methanone]", "values": [{"measurement": "IC50", "setting": "[1]", "result": 13, "unit": "nM"}, {"measurement": "IC50", "setting": "[2]", "result": 646, "unit": "nM"}, {"measurement": "IC50", "setting": "[3]", "result": 376, "unit": "nM"}, {"measurement": "IC50", "setting": "[4]", "result": 888, "unit": "nM"}]}, {"smiles": "Cn1cc(-c2cc3c(N4CC5CCC(C4)N5C(=O)[C@@H]4C[C@H]4C#N)ncnn3c2)cn1", "note": "(single isomer, unassigned) [Example 74]", "values": [{"measurement": "IC50", "setting": "[1]", "result": 126, "unit": "nM"}, {"measurement": "IC50", "setting": "[2]", "result": 1280, "unit": "nM"}, {"measurement": "IC50", "setting": "[3]", "result": 1910, "unit": "nM"}, {"measurement": "IC50", "setting": "[4]", "result": 4040, "unit": "nM"}]}, {"smiles": "Cc1ccc(-c2cc3c(N4CC5CCC(C4)N5C(=O)[C@@H]4C[C@H]4F)ncnn3c2)cn1", "note": "[Example 92, ((1S,2R)-2-fluorocyclopropyl)(3-(6-(6-methylpyridin-3-yl)pyrrolo[2,1-f][1,2,4]triazin-4-yl)-3,8-diazabicyclo[3.2.1]octan-8-yl)methanone]", "values": [{"measurement": "IC50", "setting": "[1]", "result": 42.2, "unit": "nM"}, {"measurement": "IC50", "setting": "[2]", "result": 744, "unit": "nM"}, {"measurement": "IC50", "setting": "[3]", "result": 1160, "unit": "nM"}, {"measurement": "IC50", "setting": "[4]", "result": 4820, "unit": "nM"}]}, {"smiles": "O=C([C@@H]1CC1(F)F)N1C2CCC1CN(c1ccnn3cc(-c4cnn(C(F)(F)F)c4)cc13)C2", "note": "[Example 19, ((S)-2,2-difluorocyclopropyl)(3-(6-(1-(trifluoromethyl)-1H-pyrazol-4-yl)pyrrolo[1,2-b]pyridazin-4-yl)-3,8-diazabicyclo[3.2.1]octan-8-yl)methanone]", "values": [{"measurement": "IC50", "setting": "[1]", "result": 2.1, "unit": "nM"}, {"measurement": "IC50", "setting": "[2]", "result": 34, "unit": "nM"}, {"measurement": "IC50", "setting": "[3]", "result": 29, "unit": "nM"}, {"measurement": "IC50", "setting": "[4]", "result": 518, "unit": "nM"}]}, {"smiles": "O=C(C1C(F)(F)C12CC2)N1C2CCC1CN(c1ncnn3cc(-c4cnn(C(F)F)c4)cc13)C2", "note": "(stereo not shown) [Example 10, (3-(6-(1-(difluoromethyl)-1H-pyrazol-4-yl)pyrrolo[2,1-f][1,2,4]triazin-4-yl)-3,8-diazabicyclo[3.2.1]octan-8-yl)(2,2-difluorospiro[2.2]pentan-1-yl)methanone]", "values": [{"measurement": "IC50", "setting": "[1]", "result": 207, "unit": "nM"}, {"measurement": "IC50", "setting": "[2]", "result": 969, "unit": "nM"}, {"measurement": "IC50", "setting": "[3]", "result": 4330, "unit": "nM"}, {"measurement": "IC50", "setting": "[4]", "result": 3220, "unit": "nM"}]}, {"smiles": "Cn1cc(-c2cc3c(N4CC5CCC(C4)N5C(=O)C4(C)CCC4)ncnn3c2)cn1", "note": "[Example 68, (3-(6-(1-methyl-1H-pyrazol-4-yl)pyrrolo[2,1-f][1,2,4]triazin-4-yl)-3,8-diazabicyclo[3.2.1]octan-8-yl)(1-methylcyclobutyl)methanone]", "values": [{"measurement": "IC50", "setting": "[1]", "result": 696, "unit": "nM"}, {"measurement": "IC50", "setting": "[2]", "result": 8700, "unit": "nM"}, {"measurement": "IC50", "setting": "[3]", "result": 9180, "unit": "nM"}, {"measurement": "IC50", "setting": "[4]", "result": 8670, "unit": "nM"}]}, {"smiles": "COc1cc(-c2nc3c(N4CC5CCC(C4)N5S(=O)(=O)C4CC4)ccnc3[nH]2)ccn1", "note": "[Example 196]", "values": [{"measurement": "IC50", "setting": "[1]", "result": 66.3, "unit": "nM"}, {"measurement": "IC50", "setting": "[2]", "result": 216, "unit": "nM"}, {"measurement": "IC50", "setting": "[3]", "result": 168, "unit": "nM"}, {"measurement": "IC50", "setting": "[4]", "result": 1000, "unit": "nM"}]}]}
